Measured values from ChEMBL document CHEMBL1201862, “PubChem BioAssay data set” (2004).
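In this assay, cells in 96-well plates receive the compound at five concentrations for 48 hours. Endpoints are linearly interpolated between the surrounding concentrations. Here, GI50 denotes the concentration required for 50% inhibition of growth.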 Activity calls are given as the source filed them. No stated cut-off is given here; in the data, active = GI50 up to about 1.1 µM and inactive = higher.

Columns and labels:
Assay in all cases: NCI-60 cell line screen, 48 h
HCC 2998 = system: HCC 2998
COLO 205 = system: COLO 205
SF-295 = system: SF-295
NCI-H522 = system: NCI-H522
HCT-116 = system: HCT-116
SNB-19 = system: SNB-19
KM12 = system: KM12
ACHN = system: ACHN
HOP-62 = system: HOP-62
T47D = system: T47D
TK-10 = system: TK-10
OVCAR-3 = system: OVCAR-3
OVCAR-4 = system: OVCAR-4
SNB-75 = system: SNB-75
HT-29 = system: HT-29
OVCAR-8 = system: OVCAR-8
BT-549 = system: BT-549
NCI/ADR-RES = system: NCI/ADR-RES
A549 = system: A549
CCRF-CEM = system: CCRF-CEM

SMILES	GI50 (HCC 2998)	GI50 (COLO 205)	GI50 (SF-295)	GI50 (NCI-H522)	GI50 (HCT-116)	GI50 (SNB-19)	GI50 (KM12)	GI50 (ACHN)	GI50 (HOP-62)	GI50 (T47D)	GI50 (TK-10)	GI50 (OVCAR-3)	GI50 (OVCAR-4)	GI50 (SNB-75)	GI50 (HT-29)	GI50 (OVCAR-8)	GI50 (BT-549)	GI50 (NCI/ADR-RES)	GI50 (A549)	GI50 (CCRF-CEM)
CCOc1ccc2nc(NC(=O)C(=O)C(C(=O)c3ccccc3-c3ccccc3)C3OC(=O)c4ccccc43)sc2c1 (stereo not given)	18.5 µM (inactive)	19.4 µM (inactive)	21.6 µM (inactive)	16.7 µM (inactive)	18.4 µM (inactive)	14 µM (inactive)	8.93 µM (inactive)	30.2 µM (inactive)	25.5 µM (inactive)	13.9 µM (inactive)	16.5 µM (inactive)	18.7 µM (inactive)	35.2 µM (inactive)	21.3 µM (inactive)	19.4 µM (inactive)	8.22 µM (inactive)	16.7 µM (inactive)	12.1 µM (inactive)	26.4 µM (inactive)	21.1 µM (inactive)
Nc1ccn(C2OC(CO)C(O)C2O)c(=O)n1 (stereo not given)	107 µM (inactive)	139 µM (inactive)	12.8 µM (inactive)	22.6 µM (inactive)	0.207 µM (active)	7.98 µM (inactive)	468 µM (inactive)	0.277 µM (active)	0.213 µM (active)	330 µM (inactive)	467 µM (inactive)	429 µM (inactive)	457 µM (inactive)	308 µM (inactive)	112 µM (inactive)	0.818 µM (active)	286 µM (inactive)	1.16 µM (inactive)	0.14 µM (active)	0.0527 µM (active)
O=C1C=CC2(C=C1)O[C@H](Cc1ccccc1)[C@@H](Cc1ccccc1)O2	2.64 µM (inactive)	1.55 µM (inactive)	2.17 µM (inactive)	0.174 µM (active)	0.1 µM (active)	2.11 µM (inactive)	1.69 µM (inactive)	0.279 µM (active)	1.15 µM (inactive)	0.44 µM (active)	0.506 µM (active)	0.298 µM (active)	0.347 µM (active)	2.91 µM (inactive)	0.964 µM (active)	0.193 µM (active)	0.201 µM (active)	0.303 µM (active)	4.62 µM (inactive)	0.102 µM (active)
CN(C)CCCCN1c2ccccc2Sc2ccc(C(=O)c3ccccc3)cc21	1.83 µM (inactive)	1.64 µM (inactive)	2.15 µM (inactive)	2.91 µM (inactive)	2.18 µM (inactive)	4.06 µM (inactive)	2.02 µM (inactive)	2.94 µM (inactive)	3.13 µM (inactive)	3.59 µM (inactive)	3.8 µM (inactive)	3.98 µM (inactive)	3.23 µM (inactive)	2.34 µM (inactive)	1.89 µM (inactive)	3.33 µM (inactive)	6.01 µM (inactive)	4.39 µM (inactive)	3.47 µM (inactive)	2.27 µM (inactive)
NC(Cc1ncccn1)C(=O)O (stereo not given)	> 100 µM (inactive)	> 100 µM (inactive)	> 100 µM (inactive)	> 100 µM (inactive)	> 100 µM (inactive)	> 100 µM (inactive)	> 100 µM (inactive)	> 100 µM (inactive)	> 100 µM (inactive)	> 100 µM (inactive)	> 100 µM (inactive)	> 100 µM (inactive)	> 100 µM (inactive)	> 100 µM (inactive)	> 100 µM (inactive)	> 100 µM (inactive)	> 100 µM (inactive)	> 100 µM (inactive)	> 100 µM (inactive)	> 100 µM (inactive)
CSc1ccc(/C=C2\N=C(c3ccccc3)N(/N=C3\C(=O)Nc4ccccc43)C2=O)cc1	> 100 µM (inactive)	> 100 µM (inactive)	> 100 µM (inactive)	> 100 µM (inactive)	> 100 µM (inactive)	> 100 µM (inactive)	> 100 µM (inactive)	> 100 µM (inactive)	> 100 µM (inactive)	> 100 µM (inactive)	> 100 µM (inactive)	83.6 µM (inactive)	> 100 µM (inactive)	> 100 µM (inactive)	> 100 µM (inactive)	88.3 µM (inactive)	> 100 µM (inactive)	> 100 µM (inactive)	> 100 µM (inactive)	92.5 µM (inactive)
O=c1oc2ccccc2cc1-c1ccc([N+](=O)[O-])cc1	> 100 µM (inactive)	> 100 µM (inactive)	83.6 µM (inactive)	56.1 µM (inactive)	36.7 µM (inactive)	14.7 µM (inactive)	> 100 µM (inactive)	> 100 µM (inactive)	> 100 µM (inactive)	> 100 µM (inactive)	> 100 µM (inactive)	> 100 µM (inactive)	> 100 µM (inactive)	> 100 µM (inactive)	> 100 µM (inactive)	54 µM (inactive)	16.5 µM (inactive)	> 100 µM (inactive)	85.9 µM (inactive)	> 100 µM (inactive)
